Experimental data from the supplement of paper PMC10307832.

What was measured:
Test in all cases: relative viability (nuclei count vs DMSO), 5 days (fraction); higher = more cells survive
[1] = compound: NCC(=O)Nc1ccc(-n2nc(C(F)(F)F)cc2-c2ccc3c(ccc4ccccc43)c2)cc1 + Cc1nc(Nc2ncc(C(=O)Nc3c(C)cccc3Cl)s2)cc(N2CCN(CCO)CC2)n1 [Dasatinib] (partner 0.075 µM)
Procedure, shortened: (§1)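 Values are medians from duplicate plates. Each reflects relative viability, defined as the nuclei count of treated wells over that of vehicle wells. Lung cancer cell lines in 1536-well plates were pin-tool dosed one day after seeding with one drug alone or with a fixed anchor-drug dose plus five library-drug doses (not always all listed) in √10 steps, then fixed, stained and imaged at 4× after 5 days.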

kb NB 142-70 + Lapatinib = compound: C1CSC2=C(C(=O)N1)SC3=C2C=C(C=C3)O [kb NB 142-70] + CS(=O)(=O)CCNCc1ccc(-c2ccc3ncnc(Nc4ccc(OCc5cccc(F)c5)c(Cl)c4)c3c2)o1 [Lapatinib] (partner 2 µM)
Procedure, shortened: as §1

[2] = compound: NCC(=O)Nc1ccc(-n2nc(C(F)(F)F)cc2-c2ccc3c(ccc4ccccc43)c2)cc1 + CC(=O)c1c(C)c2cnc(Nc3ccc(N4CCNCC4)cn3)nc2n(C2CCCC2)c1=O [Palbociclib] (partner 0.5 µM)
Procedure, shortened: as §1

[3] = compound: NCC(=O)Nc1ccc(-n2nc(C(F)(F)F)cc2-c2ccc3c(ccc4ccccc43)c2)cc1 + N=C(N)NC(=N)NCCc1ccccc1 [Phenformin] (partner 250 µM)
Procedure, shortened: as §1

| Cell Line | relative viability ([1]; first compound 0.02 µM) | relative viability ([1]; first compound 0.06325 µM) | relative viability ([1]; first compound 0.2 µM) | relative viability ([1]; first compound 0.6325 µM) | relative viability ([1]; first compound 2 µM) | relative viability (kb NB 142-70 + Lapatinib; first compound 0.1 µM) | relative viability (kb NB 142-70 + Lapatinib; first compound 1 µM) | relative viability (kb NB 142-70 + Lapatinib; first compound 3.162 µM) | relative viability ([2]; first compound 0.02 µM) | relative viability ([2]; first compound 0.06325 µM) | relative viability ([2]; first compound 0.2 µM) | relative viability ([2]; first compound 0.6325 µM) | relative viability ([2]; first compound 2 µM) | relative viability ([3]; first compound 0.02 µM) | relative viability ([3]; first compound 0.06325 µM) | relative viability ([3]; first compound 0.2 µM) | relative viability ([3]; first compound 0.6325 µM) | relative viability ([3]; first compound 2 µM) |
| --- | --- | --- | --- | --- | --- | --- | --- | --- | --- | --- | --- | --- | --- | --- | --- | --- | --- | --- |
| SW 1573 | 0.471 | 0.383 | 0.586 | 0.471 | 0.424 | 1.03 | 0.877 | 0.988 | 0.409 | 0.466 | 0.344 | 0.384 | 0.36 | 0.394 | 0.356 | 0.383 | 0.401 | 0.366 |
| NCI-H2347 | 0.36 | 0.365 | 0.301 | 0.326 | 0.298 | 1.02 | 1.07 | 0.936 | 0.426 | 0.384 | 0.448 | 0.473 | 0.419 | 0.51 | 0.394 | 0.547 | 0.386 | 0.281 |
| NCI-H2009 | 0.314 | 0.332 | 0.327 | 0.279 | 0.305 | 0.952 | 1.03 | 0.678 | 0.236 | 0.147 | 0.265 | 0.186 | 0.272 | 0.459 | 0.503 | 0.482 | 0.479 | 0.525 |
| HCC-15 | 0.619 | 0.709 | 0.651 | 0.632 | 0.673 | 0.854 | 0.932 | 0.743 | 0.714 | 0.732 | 0.763 | 0.742 | 0.749 | 0.438 | 0.497 | 0.476 | 0.497 | 0.506 |
| COR-L23 | 0.481 | 0.504 | 0.566 | 0.481 | 0.531 | 0.972 | 1 | 0.586 | 0.297 | 0.293 | 0.346 | 0.261 | 0.245 | 0.394 | 0.434 | 0.439 | 0.44 | 0.417 |
| HCC-78 | 0.466 | 0.432 | 0.357 | 0.425 | 0.429 | 0.919 | 0.941 | 0.744 | 0.541 | 0.482 | 0.526 | 0.403 | 0.496 | 0.758 | 0.691 | 0.713 | 0.649 | 0.714 |
| NCI-H727 | 0.375 | 0.365 | 0.347 | 0.467 | 0.345 | 0.808 | 1.03 | 0.905 | 0.674 | 0.795 | 0.56 | 0.72 | 0.682 | 0.63 | 0.606 | 0.561 | 0.41 | 0.728 |
| NCI-H2087 | 0.862 | 0.854 | 0.928 | 0.762 | 0.904 | 0.935 | 1.22 | 0.897 | 0.256 | 0.278 | 0.262 | 0.249 | 0.24 | 0.455 | 0.583 | 0.441 | 0.48 | 0.47 |
| BEN | 0.283 | 0.332 | 0.244 | 0.333 | 0.304 | 0.731 | 0.66 | 0.519 | 0.441 | 0.475 | 0.473 | 0.49 | 0.465 | 0.249 | 0.239 | 0.302 | 0.269 | 0.228 |
| EKVX | 0.554 | 0.6 | 0.648 | 0.527 | 0.488 | 0.263 | 0.216 | 0.235 | 0.436 | 0.417 | 0.397 | 0.348 | 0.382 | 0.228 | 0.273 | 0.218 | 0.236 | 0.219 |
| LXF-289 | 0.188 | 0.246 | 0.315 | 0.218 | 0.241 | 0.917 | 0.909 | 0.94 | 0.591 | 0.599 | 0.59 | 0.588 | 0.628 | 0.516 | 0.527 | 0.494 | 0.506 | 0.56 |
| ABC-1 | 0.613 | 0.602 | – | 0.59 | 0.49 | 0.946 | 1.22 | 1.07 | 0.725 | 0.592 | – | 0.807 | 0.658 | 0.248 | 0.233 | – | 0.225 | 0.245 |
| NCI-H650 | 0.4 | 0.479 | 0.434 | 0.377 | 0.459 | 1.05 | 1.17 | 0.657 | 0.377 | 0.315 | 0.329 | 0.358 | 0.296 | 0.422 | 0.44 | 0.48 | 0.379 | 0.474 |
| NCI-H1650 | 0.349 | 0.313 | – | 0.364 | 0.396 | 0.874 | 0.88 | 0.69 | 0.377 | 0.37 | 0.225 | 0.319 | 0.343 | 0.426 | 0.49 | – | 0.515 | 0.449 |
| NCI-H2085 | 0.291 | 0.282 | 0.292 | 0.263 | 0.341 | 0.764 | 0.727 | 0.48 | 0.533 | 0.477 | 0.474 | 0.469 | 0.473 | 0.689 | 0.786 | 0.652 | 0.702 | 0.72 |
| NCI-H1793 | 0.352 | 0.431 | 0.391 | 0.404 | 0.411 | 0.57 | 0.749 | 0.861 | 0.333 | 0.295 | 0.337 | 0.339 | 0.363 | 0.258 | 0.376 | 0.412 | 0.392 | 0.422 |
| LC-2-ad | 0.478 | 0.677 | 0.609 | 0.714 | 0.577 | 0.96 | 0.885 | 0.937 | 0.507 | 0.462 | 0.463 | 0.469 | 0.473 | 0.531 | 0.643 | 0.609 | 0.614 | 0.649 |
| COR-L 105 | 0.388 | 0.426 | 0.362 | 0.418 | 0.413 | 0.382 | 0.427 | 0.361 | 0.4 | 0.399 | 0.411 | 0.413 | 0.432 | 0.408 | 0.517 | 0.5 | 0.539 | 0.492 |
